Active and inactive are the calls of the source.
What was measured:
[1] = HEK293 Cytotoxicity Assay Measured in Cell-Based System Using Plate Reader - 7071-01_Inhibitor_Dose_CherryPick_Activity_Set2.; assay type: functional
HEK293 = test: viability loss in HEK293T cells – cell-based, ATP luminescence, cherry-pick samples, cytotoxicity control, dose response (AID 687005); assay type: functional; conditions: Homo sapiens;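 further: cells exposed to compound for 48 hours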
[2] = biological target: Potassium channel subfamily K member 3 (Homo sapiens, UniProt O14649); test: inhibition of human KCNK3 channel flux – CHO cells, FluxOR thallium flux, SAR follow-up (AID 652212); assay type: functional
Chain of Potassium channel subfamily K member 3 (O14649 whole entry): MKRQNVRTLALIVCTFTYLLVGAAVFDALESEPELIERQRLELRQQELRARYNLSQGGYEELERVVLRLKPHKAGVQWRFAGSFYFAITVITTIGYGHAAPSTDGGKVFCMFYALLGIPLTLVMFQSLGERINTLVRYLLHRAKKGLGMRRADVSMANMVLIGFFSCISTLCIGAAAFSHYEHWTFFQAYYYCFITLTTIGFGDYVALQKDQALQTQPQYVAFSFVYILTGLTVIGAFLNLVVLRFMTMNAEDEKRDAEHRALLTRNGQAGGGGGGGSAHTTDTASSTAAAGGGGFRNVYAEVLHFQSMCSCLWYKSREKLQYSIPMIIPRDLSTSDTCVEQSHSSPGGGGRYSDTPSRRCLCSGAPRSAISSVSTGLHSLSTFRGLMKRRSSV

[3] = human cervical cancer cell viability loss – 24 h, plate reader, dry powder, cytotoxicity control, dose response (AID 686928); assay type: functional, cell-based; conditions: HeLa
Cytochrome P450 2C9 = Cytochrome P450 2C9 (Homo sapiens, UniProt P11712)
Chain of Cytochrome P450 2C9 (P11712 whole entry): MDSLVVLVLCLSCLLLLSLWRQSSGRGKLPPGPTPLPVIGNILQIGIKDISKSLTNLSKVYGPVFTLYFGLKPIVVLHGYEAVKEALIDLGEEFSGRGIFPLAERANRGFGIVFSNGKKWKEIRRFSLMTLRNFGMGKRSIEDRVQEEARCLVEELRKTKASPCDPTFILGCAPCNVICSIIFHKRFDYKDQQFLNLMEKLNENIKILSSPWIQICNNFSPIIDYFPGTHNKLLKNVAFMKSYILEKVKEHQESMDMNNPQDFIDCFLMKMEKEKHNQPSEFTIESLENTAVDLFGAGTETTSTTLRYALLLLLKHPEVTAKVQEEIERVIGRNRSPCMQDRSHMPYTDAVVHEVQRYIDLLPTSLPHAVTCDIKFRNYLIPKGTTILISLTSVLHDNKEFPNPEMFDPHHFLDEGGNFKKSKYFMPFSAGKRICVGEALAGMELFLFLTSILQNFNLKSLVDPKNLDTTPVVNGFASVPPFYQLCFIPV

NS3 = NS3 (Hepatitis C virus, UniProt A3EZJ3); test: NS3h DNA-binding inhibition IC50 – biochemical, fluorescence polarization, ChemBridge library, dose response (AID 743264)
Chain of NS3 (A3EZJ3 whole entry): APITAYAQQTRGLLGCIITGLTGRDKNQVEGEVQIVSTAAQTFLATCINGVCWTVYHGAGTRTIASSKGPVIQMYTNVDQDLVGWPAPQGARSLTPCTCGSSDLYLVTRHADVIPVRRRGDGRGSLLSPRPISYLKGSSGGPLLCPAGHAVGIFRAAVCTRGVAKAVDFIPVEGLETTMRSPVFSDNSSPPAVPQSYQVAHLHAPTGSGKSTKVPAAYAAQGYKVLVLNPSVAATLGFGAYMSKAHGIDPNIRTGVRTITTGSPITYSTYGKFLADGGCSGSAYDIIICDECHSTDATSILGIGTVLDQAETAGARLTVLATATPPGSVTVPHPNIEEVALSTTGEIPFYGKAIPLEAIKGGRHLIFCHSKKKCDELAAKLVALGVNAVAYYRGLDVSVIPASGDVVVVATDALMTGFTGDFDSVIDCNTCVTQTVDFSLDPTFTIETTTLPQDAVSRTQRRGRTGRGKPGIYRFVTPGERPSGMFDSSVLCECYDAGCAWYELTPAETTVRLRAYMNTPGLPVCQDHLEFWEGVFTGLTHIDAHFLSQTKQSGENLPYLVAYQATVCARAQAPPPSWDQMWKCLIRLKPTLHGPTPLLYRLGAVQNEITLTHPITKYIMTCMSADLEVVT

[4] = M. tuberculosis growth inhibition, HTS (AID 449762); assay type: functional
[5] = biological target: T1, Oxysterols receptor LXR-beta (Homo sapiens, UniProt P55055); assay type: functional, cell-based;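 further: agonist activity at LXR measured by a cell-based luminescence readout across a dose range, run as a counterscreen for daf-12 agonists; HEK293 cells with Gal4-LXR fusion and GAL4-driven luciferase reporter; potency for activation of Gal4-LXR reporter so compounds are agonists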
T1 sequence (P55055 whole entry): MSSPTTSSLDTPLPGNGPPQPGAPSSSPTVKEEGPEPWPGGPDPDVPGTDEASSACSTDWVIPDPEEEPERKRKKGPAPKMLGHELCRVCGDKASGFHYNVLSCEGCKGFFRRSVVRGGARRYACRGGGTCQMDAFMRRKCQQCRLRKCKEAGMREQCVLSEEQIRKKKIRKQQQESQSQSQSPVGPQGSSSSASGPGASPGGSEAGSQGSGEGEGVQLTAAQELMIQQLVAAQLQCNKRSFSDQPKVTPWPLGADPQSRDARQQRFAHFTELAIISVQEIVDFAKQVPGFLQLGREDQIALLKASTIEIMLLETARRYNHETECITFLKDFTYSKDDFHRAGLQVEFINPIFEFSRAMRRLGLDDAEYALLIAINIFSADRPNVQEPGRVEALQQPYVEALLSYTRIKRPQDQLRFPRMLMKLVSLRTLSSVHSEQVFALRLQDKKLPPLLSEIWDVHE

[6] = general mammalian cell viability loss – activator set, cherry-pick, cytotoxicity control for miR-122 modulator project, dose response (AID 720690); assay type: functional, cell-based;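 further: HEK293T human cells scored for general mammalian cytotoxicity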
[7] = general mammalian cell viability loss – inhibitor set, cherry-pick, set 2, cytotoxicity control for miR-122 modulator project, dose response (AID 720697); assay type: functional, cell-based
[8] = Luminescence Cell-Based Dose Response to Identify Activators of Luciferase Translation or Activity in H4-C Neuroglioblastoma Cells. [Related pubchem assays: 1829 (Project Summary), 1814 (Primary HTS)]; assay type: functional
[9] = Luminescence Cell-Based Dose Confirmation HTS to Identify Activators of 5'UTR Stem-Loop Driven Alpha-Synuclein mRNA Translation in H4 Neuroglioblastoma Cells. [Related pubchem assays: 1829 (Project Summary), 1814 (Primary HTS)]; assay type: functional
H4 = test: Luminescence Cell-Based Dose Response HTS to Identify Activators of 5'UTR Stem-Loop Driven Prion Protein mRNA Translation in H4 Neuroglioblastoma Cells. [Related pubchem assays: 1829 (Project Summary), 1814 (Primary HTS)]; assay type: functional; conditions: Homo sapiens
[10] = Luminescence Cell-Based Dose Response HTS to Identify Activators of Luciferase Translation or Activity in H4 […] Cells. [Related pubchem assays: 1829 (Project Summary), 1814 (Primary HTS)]; assay type: functional
[11] = Luminescence Cell-Based Dose Confirmation to Identify Activators of 5'UTR Stem-Loop Driven Alpha-Synuclein mRNA Translation in H4 Neuroglioblastoma Cells. [Related pubchem assays: 1829 (Project Summary), 1814 (Primary HTS)]; assay type: functional
Cytochrome P450 3A4 = Cytochrome P450 3A4 (Homo sapiens, UniProt P08684);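 further: CYP3A4 tested as one member of a cytochrome P450 panel screen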
Chain of Cytochrome P450 3A4 (P08684 whole entry): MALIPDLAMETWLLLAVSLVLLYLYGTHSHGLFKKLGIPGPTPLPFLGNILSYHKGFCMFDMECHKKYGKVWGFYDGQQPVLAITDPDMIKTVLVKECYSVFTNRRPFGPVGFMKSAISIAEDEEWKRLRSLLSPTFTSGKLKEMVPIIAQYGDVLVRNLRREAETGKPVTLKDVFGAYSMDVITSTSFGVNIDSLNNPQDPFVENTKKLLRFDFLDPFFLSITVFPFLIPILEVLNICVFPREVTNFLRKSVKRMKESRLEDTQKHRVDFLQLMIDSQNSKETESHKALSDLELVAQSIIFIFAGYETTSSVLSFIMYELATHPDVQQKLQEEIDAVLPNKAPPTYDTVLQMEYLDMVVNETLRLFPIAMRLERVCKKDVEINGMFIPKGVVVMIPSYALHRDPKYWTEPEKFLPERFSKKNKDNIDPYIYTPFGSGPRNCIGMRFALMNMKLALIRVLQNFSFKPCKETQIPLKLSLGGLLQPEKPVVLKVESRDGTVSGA

[12] = Luminescence Cell-Based Dose Response to Identify Activators of 5'UTR Stem-Loop Driven Prion Protein mRNA Translation in H4-C Neuroglioblastoma Cells. [Related pubchem assays: 1829 (Project Summary), 1814 (Primary HTS)]; assay type: functional
[13] = activation of miR-122 Renilla sensor silencing – cell-based, Huh7 psiCHECK-miR122, Renilla luciferase, cherry-picked, dose response (AID 651956); assay type: functional;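 further: huh7 hepatoma cells stably carrying a psiCHECK-2 miR-122 sensor plasmid; renilla luciferase signal reporting endogenous miR-122 activity after 48 h compound exposure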
cells [14] = test: cells
[15] = HEK293T viability loss – cell-based, ATP luminescence, dry powder, Set6, cytotoxicity control, dose response (AID 743142); assay type: functional; conditions: HEK293
[16] = viability loss in A549 lung cancer cells – cell-based, CellTiter-Glo luminescence, dry powder, set 3, cytotoxicity control, dose response (AID 743146); assay type: functional
[17] = biological target: Metabotropic glutamate receptor 3 (Rattus norvegicus, UniProt P31422); test: inhibition of rat mGlu3 glutamate signaling – HEK/GIRK cells, thallium flux, dose response (AID 651839); assay type: functional
Chain of Metabotropic glutamate receptor 3 (P31422 whole entry): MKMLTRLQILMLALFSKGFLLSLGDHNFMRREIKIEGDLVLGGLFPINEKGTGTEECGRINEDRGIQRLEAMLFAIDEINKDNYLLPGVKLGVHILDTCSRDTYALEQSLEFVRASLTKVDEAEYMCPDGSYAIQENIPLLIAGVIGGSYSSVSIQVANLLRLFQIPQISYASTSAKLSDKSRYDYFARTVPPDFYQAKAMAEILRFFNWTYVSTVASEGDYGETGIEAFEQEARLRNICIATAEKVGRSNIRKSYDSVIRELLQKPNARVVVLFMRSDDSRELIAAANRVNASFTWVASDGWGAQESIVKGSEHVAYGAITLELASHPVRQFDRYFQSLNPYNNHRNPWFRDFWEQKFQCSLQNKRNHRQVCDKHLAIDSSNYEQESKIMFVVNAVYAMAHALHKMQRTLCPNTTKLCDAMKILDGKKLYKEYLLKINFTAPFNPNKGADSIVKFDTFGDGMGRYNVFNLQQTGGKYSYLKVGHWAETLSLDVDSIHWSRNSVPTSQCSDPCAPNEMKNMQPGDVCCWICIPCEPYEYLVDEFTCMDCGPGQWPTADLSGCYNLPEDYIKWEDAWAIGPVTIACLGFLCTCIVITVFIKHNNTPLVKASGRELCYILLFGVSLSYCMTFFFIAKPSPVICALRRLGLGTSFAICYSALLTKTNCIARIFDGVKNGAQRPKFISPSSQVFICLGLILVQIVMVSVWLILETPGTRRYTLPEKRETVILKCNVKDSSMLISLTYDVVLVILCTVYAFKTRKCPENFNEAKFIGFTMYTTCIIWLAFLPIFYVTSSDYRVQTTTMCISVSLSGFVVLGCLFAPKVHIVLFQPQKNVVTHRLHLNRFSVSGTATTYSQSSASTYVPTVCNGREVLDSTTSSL

[18] = MITF Orthogonal Assay: SK-MEL-5 CTG Assay Measured in Cell-Based System Using Plate Reader - 2084-02_Inhibitor_Dose_DryPowder_Activity_Set7.; assay type: functional
[19] = inhibitors of TRPM1-promoter reporter in SK-MEL-5 – cell-based, luciferase, dry powder, set 8, MITF inhibitor project, dose response (AID 624430); assay type: functional
[20] = MITF: Counter assay: A375 proliferation Measured in Cell-Based System Using Plate Reader - 2084-03_Inhibitor_Dose_DryPowder_Activity_Set8.; assay type: functional; conditions: A-375
[21] = Fluorescence-based cell-based high throughput dose response assay for inhibitors of the interaction of nucleotide-binding oligomerization domain containing 2 (NOD2) and the receptor-interacting serine-threonine kinase 2 (RIPK2).; assay type: functional; conditions: Homo sapiens
[22] = THP-1 cell cytotoxicity, dose response, cytotoxicity control for non-replicating M. tuberculosis project (AID 489025); assay type: functional
[23] = loss of viability in HepG2 cells – cell-based, CellTiter-Glo, cherry-picked, cytotoxicity control for Shn3 inhibitor project, dose response (AID 624134); assay type: functional
[24] = reduced cellular PGC1a acetyl-lysine signal – cell-based, cherry-picked samples, dose response (AID 720514); assay type: functional;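 further: potency may reflect raised or lowered acetylation signal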
cells [25] = assay type: functional
[26] = Luminescence Cell-Based Dose Retest to Confirm Inhibitors of Cancer Stem Cells. [Related pubchem assays (depositor defined):AID2717, AID2721]; assay type: functional; conditions: Homo sapiens
[27] = EF1alpha-driven Renilla reporter with control 3'UTR suppression – Clone20-Shn3RL cells, dual-Glo, cherry-pick, set 2, counter-screen for Shn3 3'UTR targeting project, dose response (AID 720724); assay type: functional, cell-based; conditions: Dual-Go Shn3RL
[28] = reduction of Shn3 3'UTR-driven luciferase in osteoblasts – cell-based, Clone20 osteoblasts, firefly luciferase, cherry-picked, dose response (AID 624132); assay type: functional;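 further: firefly luciferase luminescence from reporter carrying the Shn3 3'UTR in osteoblasts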
Protein RecA = biological target: T2, Protein RecA (Mycobacterium tuberculosis, UniProt P9WHJ3); test: Fluorescence Cell-Free Homogeneous Dose Retest to Identify Inhibitors of RecA-Intein Splicing Activity. [Related pubchem assays (depositor defined):AID2097, AID2223, AID489010, AID492950]; assay type: functional
T2 sequence (P9WHJ3 whole entry): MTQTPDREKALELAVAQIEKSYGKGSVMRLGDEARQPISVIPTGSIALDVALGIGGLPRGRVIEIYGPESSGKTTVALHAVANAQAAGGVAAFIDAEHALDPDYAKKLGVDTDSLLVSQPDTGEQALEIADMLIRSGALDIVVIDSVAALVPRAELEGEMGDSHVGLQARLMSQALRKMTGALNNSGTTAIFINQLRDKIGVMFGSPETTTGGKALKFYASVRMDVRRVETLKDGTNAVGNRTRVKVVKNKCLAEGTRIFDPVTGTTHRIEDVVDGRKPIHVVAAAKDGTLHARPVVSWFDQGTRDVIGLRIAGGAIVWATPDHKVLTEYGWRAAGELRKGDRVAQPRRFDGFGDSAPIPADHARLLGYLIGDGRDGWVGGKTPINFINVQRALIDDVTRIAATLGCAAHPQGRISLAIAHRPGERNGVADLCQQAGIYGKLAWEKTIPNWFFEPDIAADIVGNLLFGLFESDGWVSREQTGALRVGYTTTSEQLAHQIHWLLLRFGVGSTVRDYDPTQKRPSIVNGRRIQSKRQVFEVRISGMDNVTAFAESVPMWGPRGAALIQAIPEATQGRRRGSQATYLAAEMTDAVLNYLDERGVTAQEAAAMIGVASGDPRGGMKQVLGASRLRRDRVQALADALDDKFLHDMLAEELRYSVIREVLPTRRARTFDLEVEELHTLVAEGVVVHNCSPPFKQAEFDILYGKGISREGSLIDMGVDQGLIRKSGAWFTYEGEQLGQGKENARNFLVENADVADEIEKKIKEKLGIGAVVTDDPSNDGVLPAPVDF

[29] = biological target: T3, Replicative DNA helicase DnaB (Mycobacterium tuberculosis, UniProt P9WMR3); test: DnaB intein splicing inhibitors, dose response, biochemical, cell-free fluorescence (AID 449749); assay type: functional
T3 sequence (P9WMR3 whole entry): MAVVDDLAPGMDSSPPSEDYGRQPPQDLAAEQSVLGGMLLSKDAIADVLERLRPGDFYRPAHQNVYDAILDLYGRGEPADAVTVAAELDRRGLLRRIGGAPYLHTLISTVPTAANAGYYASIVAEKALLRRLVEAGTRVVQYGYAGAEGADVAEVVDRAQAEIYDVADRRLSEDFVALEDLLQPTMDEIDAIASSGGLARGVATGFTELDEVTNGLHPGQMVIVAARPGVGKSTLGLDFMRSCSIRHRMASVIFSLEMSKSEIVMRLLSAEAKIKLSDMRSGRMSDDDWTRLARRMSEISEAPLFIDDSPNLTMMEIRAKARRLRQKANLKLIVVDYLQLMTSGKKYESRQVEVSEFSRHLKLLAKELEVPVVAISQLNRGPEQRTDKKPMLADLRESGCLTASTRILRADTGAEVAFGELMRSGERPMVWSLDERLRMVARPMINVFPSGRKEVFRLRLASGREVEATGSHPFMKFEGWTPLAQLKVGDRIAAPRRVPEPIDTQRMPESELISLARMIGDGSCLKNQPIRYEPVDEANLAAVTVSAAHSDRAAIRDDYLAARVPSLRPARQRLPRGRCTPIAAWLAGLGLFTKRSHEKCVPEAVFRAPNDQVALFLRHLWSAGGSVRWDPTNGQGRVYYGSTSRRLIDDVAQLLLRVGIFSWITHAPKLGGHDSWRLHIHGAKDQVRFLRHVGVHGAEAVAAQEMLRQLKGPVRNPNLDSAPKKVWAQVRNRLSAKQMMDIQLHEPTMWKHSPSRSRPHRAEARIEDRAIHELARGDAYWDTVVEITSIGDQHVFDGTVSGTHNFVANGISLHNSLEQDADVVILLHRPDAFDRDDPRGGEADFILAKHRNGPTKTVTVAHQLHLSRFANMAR

[30] = non-specific 3'UTR reporter inhibition in Clone20-Shn3RL – cell-based, Renilla luciferase, cherry-picked, counter-screen for Shn3 inhibitor project, dose response (AID 624133); assay type: functional
[31] = Shn3 3'UTR reporter signal decrease – cell-based, Clone20 osteoblasts, firefly luciferase, cherry-pick, set 2, Schnurri-3 inhibitor project, dose response (AID 720490); assay type: functional;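 further: actives lower the luminescence signal as inhibitors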

Structure (SMILES): COc1ccccc1-c1ccc([C@H]2[C@H](C#N)N(C(=O)C3CC3)[C@H]2CO)cc1
- AC50 [1]: 24.8 µM (active)
- AC50 (HEK293): 24.8 µM (active)

Structure (SMILES): CCOc1ccccc1NC(=O)c1cccc(C(=O)NC2CCCC2)c1
- IC50 [2]: 0.342 µM (active)

Structure (SMILES): O=C(Nc1nnc(C2CCCC2)o1)C1CCCCC1
- AC50 [3]: 165 µM (active)

Structure (SMILES): O=C(O)Cc1c[nH]c2ccc(O)cc12
- AC50 (Cytochrome P450 2C9): inconclusive
- IC50 (NS3): 69.3 µM (active)
- IC50 [4]: > 100 µM (active)

Structure (SMILES): Cc1ccc(N/C=C(/C#N)c2ccsc2)cc1C
- EC50 [5]: > 67.5 µM (inactive)

Structure (SMILES): CCOC(=O)c1cc2c(C)n(-c3ccc(C)cc3)c(C)c2ccc1=O
- AC50 [6]: 3.93 µM (active)
- AC50 [7]: 7.08 µM (active)
- EC50 [8]: 0.376 µM (active)
- EC50 [9]: 0.1 µM (active)
- EC50 (H4): < 0.1 µM (active)
- EC50 [10]: < 0.1 µM (active)
- EC50 [11]: 0.262 µM (active)
- AC50 (Cytochrome P450 3A4): inconclusive
- EC50 [12]: 0.333 µM (active)
- AC50 [13]: 1.46 µM (active)

Structure (SMILES): COc1cc(C(=O)NCCCNc2nc3c(C)cc(C)cc3cc2C#N)cc(OC)c1OC
- AC50 (cells [14]): 4.79 µM (active)

Structure (SMILES): O=C(CCNC(=O)c1ccc(C(F)(F)F)cc1)N[C@@H]1CCCc2ccccc21
- AC50 [15]: 7.54 µM (active)
- AC50 [16]: 26 µM (active)

Structure (SMILES): COc1ccc(-c2ccc3cc(C(=O)N4CCCC(CO)C4)ccc3c2)cn1 (configuration not stated)
- IC50 [17]: 6.77 µM (active)

Structure (SMILES): COc1ccc(NC2=C(N3CCN(C(C)C)CC3)C(=O)c3ccccc3C2=O)cc1
- AC50 [18]: 16.6 µM (active)
- AC50 [19]: 3.28 µM (active)
- AC50 [20]: 45 µM (active)

Structure (SMILES): COc1ccc(-c2cc(C(F)(F)F)nc(S(C)(=O)=O)n2)cc1
- IC50 [21]: 5.47 µM (active)
- CC50 [22]: 26 µM (active)
- AC50 [23]: 45.9 µM (active)
- AC50 [24]: 15.3 µM (active)
- IC50 (cells [25]): 10.9 µM (active)
- AC50 [26]: 3.81 µM (active)
- AC50 [27]: 48.6 µM (active)
- AC50 [28]: 4.46 µM (active)
- EC50 (Protein RecA): 4.88 µM (active)
- AC50 [29]: 5.99 µM (active)
- AC50 [30]: 26.3 µM (active)
- AC50 [31]: 5.05 µM (active)

From ChEMBL document CHEMBL1201862, “PubChem BioAssay data set” (2004)
